For one data set, the system named is MCF7. As to the kind of experiment: Cytotoxicity against human MCF7 cells assessed as cell growth inhibition after 72 hrs by MTT assay. To be noted: MCF7, 72 h. The class given is functional, cell-based.
For the next data set, the system named is BeWo. The data set is described as follows: Cytotoxicity against human Bewo cells assessed as cell growth inhibition after 72 hrs by MTT assay. It counts as functional, cell-based.
Data set [1] in a line: Cytotoxicity against human HL60 cells assessed as cell growth inhibition after 72 hrs by MTT assay. The settings on record: HL-60, 72 h. It counts as functional, cell-based.
The target of data set [2] is T1, Hepatocyte growth factor receptor (Homo sapiens, UniProt P08581). As to the kind of experiment: Inhibition of cMET (unknown origin) using TK substrate-biotin as substrate preincubated with compound followed by substrate addition for 40 mins measured after 1 hr by HTRF assay.
T1 sequence (P08581 whole entry): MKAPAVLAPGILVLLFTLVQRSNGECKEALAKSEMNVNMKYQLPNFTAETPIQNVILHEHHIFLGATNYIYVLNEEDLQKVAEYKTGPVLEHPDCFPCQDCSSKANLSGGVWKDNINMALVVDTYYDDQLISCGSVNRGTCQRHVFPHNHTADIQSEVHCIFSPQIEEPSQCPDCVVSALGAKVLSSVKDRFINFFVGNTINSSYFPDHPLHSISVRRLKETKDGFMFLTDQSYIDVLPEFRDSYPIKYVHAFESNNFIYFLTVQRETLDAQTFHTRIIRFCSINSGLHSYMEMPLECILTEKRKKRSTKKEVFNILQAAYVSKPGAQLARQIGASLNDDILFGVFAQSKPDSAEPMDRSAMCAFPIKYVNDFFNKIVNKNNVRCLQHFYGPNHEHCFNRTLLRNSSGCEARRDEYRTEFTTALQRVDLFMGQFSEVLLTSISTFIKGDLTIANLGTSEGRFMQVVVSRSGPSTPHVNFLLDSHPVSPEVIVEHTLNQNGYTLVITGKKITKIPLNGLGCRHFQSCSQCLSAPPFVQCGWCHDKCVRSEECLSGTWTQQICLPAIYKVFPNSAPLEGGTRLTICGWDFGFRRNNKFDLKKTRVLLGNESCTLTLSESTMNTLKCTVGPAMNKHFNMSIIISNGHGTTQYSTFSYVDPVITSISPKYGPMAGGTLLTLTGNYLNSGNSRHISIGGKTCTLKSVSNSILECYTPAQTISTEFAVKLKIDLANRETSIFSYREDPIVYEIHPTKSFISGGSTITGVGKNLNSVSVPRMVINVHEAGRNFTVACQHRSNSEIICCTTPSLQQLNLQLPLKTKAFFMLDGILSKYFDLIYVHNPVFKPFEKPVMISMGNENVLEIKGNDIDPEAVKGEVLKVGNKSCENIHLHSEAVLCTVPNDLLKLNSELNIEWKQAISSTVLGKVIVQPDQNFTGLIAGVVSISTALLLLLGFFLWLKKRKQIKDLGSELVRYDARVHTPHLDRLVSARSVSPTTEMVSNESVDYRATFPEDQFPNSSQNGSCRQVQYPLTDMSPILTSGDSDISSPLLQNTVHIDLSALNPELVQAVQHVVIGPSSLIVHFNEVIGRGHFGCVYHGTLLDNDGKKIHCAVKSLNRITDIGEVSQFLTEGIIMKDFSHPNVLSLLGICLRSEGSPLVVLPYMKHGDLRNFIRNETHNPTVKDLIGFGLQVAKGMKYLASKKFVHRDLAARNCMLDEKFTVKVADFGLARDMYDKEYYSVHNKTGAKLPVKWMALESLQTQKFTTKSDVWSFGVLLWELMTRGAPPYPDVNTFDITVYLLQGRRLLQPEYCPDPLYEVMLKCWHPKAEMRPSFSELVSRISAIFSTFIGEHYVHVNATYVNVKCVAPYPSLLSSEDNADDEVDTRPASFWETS
A short description of data set [3]: Toxicity in ICR mouse assessed as mortality at 65.6 mg/kg, ig measured after 14 days. To be noted: in vivo, po. It counts as organism-based.
Data set [4] in a line: Toxicity in ig dosed ICR mouse assessed as mortality measured after 14 days. It counts as organism-based. To be noted: in vivo, po.
The subject of data set [5] is Mus musculus. The data set is described as follows: Toxicity in ICR mouse assessed as loss of locomotor activity at 72.9 mg/kg, ig measured after 14 days. The class given is organism-based. The settings on record: in vivo, po, 336 h.
For data set [6], the system named is Mus musculus. The data set is described as follows: Toxicity in ICR mouse assessed as respiratory depression at 72.9 mg/kg, ig measured after 14 days. The class given is organism-based. To be noted: in vivo, po, 336 h.
Data set [7] has as its system Mus musculus. As to the kind of experiment: Toxicity in ICR mouse assessed as convulsions on limbs at 72.9 mg/kg, ig measured after 14 days. The class given is organism-based, Limb. To be noted: in vivo, po, 336 h.
Data set [8] has as its system Mus musculus. As to the kind of experiment: Toxicity in ICR mouse assessed as loss of locomotor activity at 81 mg/kg, ig measured after 14 days. The class given is organism-based. To be noted: in vivo, po, 336 h.
The test system of data set [9] is Mus musculus. As to the kind of experiment: Toxicity in ICR mouse assessed as respiratory depression at 81 mg/kg, ig measured after 14 days. It counts as organism-based. To be noted: in vivo, po, 336 h.
In data set [10] the test system is Mus musculus. The data set is described as follows: Toxicity in ICR mouse assessed as convulsions on limbs at 81 mg/kg, ig measured after 14 days. The class given is organism-based, Limb. The settings on record: in vivo, po, 336 h.
Data set [11] has as its system CCRF S-180. As to the kind of experiment: Antitumor activity against mouse S180 cells xenografted in ICR mouse assessed as tumor growth inhibition at 5 mg/kg, ig administered once daily for 7 days starting from second day post xenograft measured after 10 days. The settings on record: CCRF S-180, po, read-out: TGI. The class given is functional.
The subject of data set [12] is Mus musculus. As to the kind of experiment: Toxicity in ICR mouse assessed as loss of locomotor activity at 90 mg/kg, ig measured after 14 days. The settings on record: in vivo, po, 336 h. It counts as organism-based.
Data set [13] deals with Mus musculus. The data set is described as follows: Toxicity in ICR mouse assessed as respiratory depression at 90 mg/kg, ig measured after 14 days. The class given is organism-based. To be noted: in vivo, po, 336 h.
The subject of data set [14] is Mus musculus. As to the kind of experiment: Toxicity in ICR mouse assessed as convulsions on limbs at 90 mg/kg, ig measured after 14 days. The class given is organism-based, Limb. The settings on record: in vivo, po, 336 h.
For data set [15], the system named is Mus musculus. As to the kind of experiment: Toxicity in ICR mouse assessed as loss of locomotor activity at 100 mg/kg, ig measured after 14 days. It counts as organism-based. The settings on record: in vivo, po, 336 h.
Data set [16] concerns Mus musculus. As to the kind of experiment: Toxicity in ICR mouse assessed as respiratory depression at 100 mg/kg, ig measured after 14 days. It counts as organism-based. The settings on record: in vivo, po, 336 h.
Data set [17] deals with Mus musculus. As to the kind of experiment: Toxicity in ICR mouse assessed as convulsions on limbs at 100 mg/kg, ig measured after 14 days. The class given is organism-based, Limb. The settings on record: in vivo, po, 336 h.
In data set [18] the test system is Mus musculus. As to the kind of experiment: Toxicity in ICR mouse assessed as pulmonary congestion at 72.9 mg/kg, ig measured after 14 days. The class given is organism-based. The settings on record: in vivo, po, 336 h.
For data set [19], the system named is Mus musculus. The data set is described as follows: Toxicity in ICR mouse assessed as pulmonary congestion at 81 mg/kg, ig measured after 14 days. It counts as organism-based. The settings on record: in vivo, po, 336 h.
In data set [20] the test system is Mus musculus. As to the kind of experiment: Toxicity in ICR mouse assessed as pulmonary congestion at 90 mg/kg, ig measured after 14 days. The class given is organism-based. The settings on record: in vivo, po, 336 h.
Data set [21] has as its system Mus musculus. The data set is described as follows: Toxicity in ICR mouse assessed as pulmonary congestion at 100 mg/kg, ig measured after 14 days. The class given is organism-based. To be noted: in vivo, po, 336 h.
Data set [22] has as its system CCRF S-180. As to the kind of experiment: Antitumor activity against mouse S180 cells xenografted in ICR mouse assessed as tumor growth inhibition at 10 mg/kg, ig administered once daily for 7 days starting from second day post xenograft measured after 10 days. The class given is functional. The settings on record: CCRF S-180, po, read-out: TGI.
Data set [23] relates to CCRF S-180. The data set is described as follows: Antitumor activity against mouse S180 cells xenografted in ICR mouse assessed as tumor growth inhibition at 20 mg/kg, ig administered once daily for 7 days starting from second day post xenograft measured after 10 days. It counts as functional. To be noted: CCRF S-180, po, read-out: TGI.
A short description of data set [24]: Toxicity in ICR mouse assessed as mortality at 72.9 mg/kg, ig measured after 14 days. It counts as organism-based. The settings on record: in vivo, po.
In data set [25] the test system is Mus musculus. As to the kind of experiment: Toxicity in ICR mouse assessed as clinical signs parameters at 65.6 mg/kg, ig measured after 14 days. It counts as organism-based. The settings on record: in vivo, po, 336 h.
The subject of data set [26] is Mus musculus. As to the kind of experiment: Toxicity in ICR mouse assessed as body weight loss at 65.6 mg/kg, ig measured after 14 days. It counts as organism-based. The settings on record: in vivo, po, 336 h.
For data set [27], the target named is T1, Hepatocyte growth factor receptor. As to the kind of experiment: Inhibition of cMET (unknown origin) using poly(Glu-Tyr) substrate incubated for 60 mins by ELISA.

pIC50: −log10 of the molar value.

`Cc1cc(C)n(-c2nnc3nncn3n2)n1`: the pIC50 is below 4.00 in the data set on MCF7, 4.33 in the data set on BeWo and 4.20 in data set [1].
For `c1ccc(CN2CCN(c3nnc4nncn4n3)CC2)cc1`, the values for the pIC50 (with MCF7; in the data set with BeWo; in [1]) were 4.56, 5.29 and 4.85, respectively.
For `O=C(c1ccccc1)N1CCN(c2nnc3nncn3n2)CC1`, in that order: 5.08, 5.23 and 5.33.
For `CCCCCC(=O)N1CCN(c2nnc3nncn3n2)CC1`, in that order: 5.28, 5.53 and 5.44.
For `CCCNc1nnc2nncn2n1`, the pIC50 was 4.70 with MCF7, 4.84 in the data set on BeWo and 4.82 in [1].
For `OCC(CO)(CO)Nc1nnc2nncn2n1`, in that order: below 4.00, 4.91 and below 4.00.
For `CCC(=O)N1CCN(c2nnc3nncn3n2)CC1`, in that order: 4.83, 4.86 and 4.99.
`O=C(Cc1ccccc1)N1CCN(c2nnc3nncn3n2)CC1`: the pIC50 is 5.51 with MCF7, 5.56 in the data set with BeWo and 5.73 in [1].
For the compound `c1ccc(CCNc2nnc3nncn3n2)cc1`, the pIC50 in the data set on MCF7 is 5.91; in the data set with BeWo, 5.60; in [1], 5.38.
Turning to `c1nnc2nnc(N3CCCCC3)nn12`, the pIC50 with MCF7 is 4.57; with BeWo, 4.97; in [1], 4.63.
For `c1nnc2nnc(NC3CCCC3)nn12`, in that order: 4.05, 4.46 and 4.42.
Consider `CC(Nc1nnc2nncn2n1)C(=O)O` (stereo not drawn), for which the results for the pIC50 (with MCF7; in the data set with BeWo; in data set [1]) were below 4.00, 4.08 and 4.13, respectively.
For `c1nnc2nnc(N3CCOCC3)nn12`, the pIC50 with MCF7 is 5.65; with BeWo it was 5.89; in data set [1], 5.84; in data set [2], 4.93. Besides, the results for the mortality at 336 h in data set [3] and in data set [24] were 0% and 25%, respectively. Also, in [4], the LD50 at 336 h was 82.5 mg/kg. The Activity result with Mus musculus [5], in the data set with Mus musculus [6], with Mus musculus [7], with Mus musculus [8], with Mus musculus [9] and in the data set with Mus musculus [10] was “Toxic” throughout. The Activity entry in the data set with Mus musculus [12], in the data set on Mus musculus [13], in the data set on Mus musculus [14], with Mus musculus [15], in the data set with Mus musculus [16] and in the data set with Mus musculus [17] was “Toxic” each time. Also, the Activity result in the data set on Mus musculus [18] was “Toxic”; in the data set with Mus musculus [19] it was “Toxic”; with Mus musculus [20] it was “Toxic”; in the data set on Mus musculus [21], “Toxic”; in the data set on Mus musculus [25] it was “Non-toxic”; with Mus musculus [26], “Non-toxic”. Also, the inhibition in vivo at 5 mg/kg in the data set with CCRF S-180 [11] is 24.2%. In the data set on CCRF S-180 [22], the inhibition in vivo at 10 mg/kg was determined as 63%. The inhibition in vivo at 20 mg/kg in the data set on CCRF S-180 [23] was found to be 27.9%.
As to `CCCCNc1nnc2nncn2n1`, the negative-log IC50 (pIC50) is 4.86 in the data set on MCF7, 5.06 in the data set on BeWo and 4.44 in [1].
As to `O=C(c1ccc([N+](=O)[O-])cc1)N1CCN(c2nnc3nncn3n2)CC1`, the results for the pIC50 (in the data set on MCF7; with BeWo; in data set [1]) were 5.34, 5.51 and 4.77, respectively.
For `O=C(c1ccc(Cl)cc1)N1CCN(c2nnc3nncn3n2)CC1`, in that order: 4.89, 5.12 and 4.91.
Consider `CCCCC(=O)N1CCN(c2nnc3nncn3n2)CC1`, for which the figures for the pIC50 (with MCF7; in the data set with BeWo; in [1]) were 5.56, 5.76 and 5.50, respectively.
Consider `CC(=O)N1CCN(c2nnc3nncn3n2)CC1`, for which the results for the negative logarithm of the IC50 (pIC50) (with MCF7; in the data set on BeWo; in data set [1]) were 4.86, 4.88 and 4.83, respectively.
Consider `Nc1nnc2nncn2n1`, for which the pIC50 in the data set on MCF7 is 4.33; with BeWo it was 4.76; in [1], 4.16.
Consider `OCCNc1nnc2nncn2n1`, for which the values for the pIC50 (in the data set with MCF7; with BeWo; in data set [1]) were 4.94, 5.48 and 4.34, respectively.
For `COc1ccc2c(OCc3nnc4nnc(-c5ccccc5)nn34)ccnc2c1`, in data set [27], the pIC50 is 8.22.
With `CN(C)c1nnc2nncn2n1`, the pIC50 in the data set on MCF7 is 5.11; in the data set on BeWo, 6.21; in [1], 5.32.
For `CN1CCN(c2nnc3nncn3n2)CC1`, the figures for the pIC50 (with MCF7; in the data set on BeWo; in [1]) were 4.67, 5.10 and 5.07, respectively.
For `CC(C)(C)C(=O)N1CCN(c2nnc3nncn3n2)CC1`, in that order: 5.26, 5.62 and 5.86.
Consider `Cc1ccc(C(=O)N2CCN(c3nnc4nncn4n3)CC2)cc1`, for which the figures for the pIC50 (in the data set on MCF7; in the data set on BeWo; in data set [1]) were 4.80, 4.84 and 5.03, respectively.
On the same counts, the results for `c1nnc2nnc(N3CCCC3)nn12` are 5.29, 5.37 and 4.61.
Take `CCCC(=O)N1CCN(c2nnc3nncn3n2)CC1`: the values for the pIC50 (in the data set on MCF7; in the data set on BeWo; in data set [1]) were 5.16, 5.17 and 5.01, respectively.
With `CC(C)COC(=O)N1CCN(c2nnc3nncn3n2)CC1`, the pIC50 in the data set with MCF7 was 5.27; in the data set on BeWo, 4.88; in data set [1], 5.10.
For the compound `c1nnc2nnc(NC3CCCCC3)nn12`, the values for the pIC50 (in the data set with MCF7; with BeWo; in data set [1]) were 5.45, 5.58 and 5.18, respectively.
`CC(C)C(=O)N1CCN(c2nnc3nncn3n2)CC1`: the pIC50 with MCF7 is 5.74; in the data set with BeWo, 5.96; in [1] it was 5.79; in data set [2], 4.63.
Take `O=C(C1CCCCC1)N1CCN(c2nnc3nncn3n2)CC1`: the pIC50 was 5.90 in the data set with MCF7, 5.72 in the data set on BeWo, 5.94 in data set [1] and 5.10 in [2].

(Values after ChEMBL document CHEMBL3808385, “Synthesis, antitumor evaluation and molecular docking studies of [1,2,4]triazolo[4,3-b][1,2,4,5]tetrazine derivatives” (Bioorg Med Chem Lett, 2016).)
